2 compounds from patent publication US8283291B2, “Herbicidal composition” (Kumiai Chemical Industry Co., Ltd., priority 2006, dated 2012) can be followed below.

In data set [1] the test system is italian ryegrass (LOLMU). In words: Test 4 on herbicidal effects against weeds and phytotoxicity by upland soil treatment. The settings on record: 1000 gai/ha, 28th day. Format: in vivo. From the text:
(§1) In a plastic pot of 14 cm in length×23 cm in width×8 cm in depth, upland soil was filled, and seeds of soybean (GLXMA), corn (ZEAMX), Ipomoea lacunosa L. (IPOLA) and velvetleaf (ABUTH) were sown and covered with soil. A wettable powder prepared in accordance with Formulation Example 1 was weighed so that the active ingredients became the prescribed amounts, diluted with water and uniformly applied to the soil surface by means of a small size spray at a rate of 500 liters per 1 hectare. Thereafter, cultivation was carried out in a greenhouse, and on the 28th day after the treatment, the herbicidal effects and phytotoxicity were examined in accordance with the standards as identified in Table 15.
(§2) The test on herbicidal effects and phytotoxicity against wheat (TRZAW), italian ryegrass (LOLMU), common chickweed (STEME) and common lambsquater (CHEAL) was carried out in the same manner as the above Test Example 1.

For data set [2], the system named is wheat (TRZAW). Described as above. The data set is classed as in vivo. The note with it: 1000 gai/ha, 28th day.
From the text: as §1, §2

For data set [3], the system named is common chickweed (STEME). The description is as above. Format: in vivo, Stellaria media. The settings on record: 1000 gai/ha, 28th day.
From the text: as §1, §2

For data set [4], the system named is shattercane (SORVU). In words: Test on herbicidal effects against weeds and phytotoxicity by foliage treatment in upland field. The data set is classed as in vivo, Sorghum vulgare. The note with it: 25 gai/ha, 21st day. The protocol: (§3) In a plastic pot of 11 cm in length×11 cm in width×11 cm in depth, the upland soil was filled, and seeds of corn (ZEAMX), soybean (GLXMA), greenfoxtail (SETVI), shattercane (SORVU), redroot pigweed (AMARE), Ipomoea lacunosa L. (IPOLA) and velvetleaf (ABUTH) were sown and covered with soil.
(§4) Then, cultivation was carried out in a greenhouse for 10 days. Then, a wettable powder prepared in accordance with Formulation Example 1 was weighed so that active ingredients would be the prescribed amounts, diluted with water and uniformly applied on the soil surface by means of a small size spray at a rate of 500 liter per 1 hectare. Thereafter, cultivation was carried out in a greenhouse, and on the 21st day after the treatment, the herbicidal effects and phytotoxicity were examined in accordance with the standards as identified in Table 15.

Data set [5] relates to corn (ZEAMX). Described as above. The note with it: 25 gai/ha, 21st day. Format: in vivo. The protocol: as §3
(§5) Then, cultivation was carried out in a greenhouse for 10 days. Then, a wettable powder prepared in accordance with Formulation Example 1 was weighed so that active ingredients would be the prescribed amounts, […] spray at a rate of 500 liter per 1 hectare. Thereafter, cultivation was carried out in a greenhouse, and on the 21st day after the treatment, the herbicidal effects and phytotoxicity were examined in accordance with the standards as identified in Table 15.

Data set [6] has as its system soybean (GLXMA). The description is as above. The data set is classed as in vivo. The settings on record: 25 gai/ha, 21st day. The protocol: as §3, §5
The test system of data set [7] is redroot pigweed (AMARE). Described as above. The data set is classed as in vivo, Amaranthus retroflexus L. The settings on record: 25 gai/ha, 21st day. The protocol:
as §3, §4

The subject of data set [8] is Ipomoea lacunosa L. (IPOLA). Described as above. Format: in vivo. The note with it: 25 gai/ha, 21st day. The method, then: as §3, §4
Data set [9] concerns velvetleaf (ABUTH). The description is as above. The data set is classed as in vivo, Abutilon theophrasti. The note with it: 25 gai/ha, 21st day. The protocol:
as §3, §4

Data set [10] concerns greenfoxtail (SETVI). Described as above. The data set is classed as in vivo, Setaria viridis. The note with it: 25 gai/ha, 21st day. The method, then: as §3, §4

For `CC(C)N(C(=O)SCC(Cl)=C(Cl)Cl)C(C)C` [Triallate], the “herbicidal effect LOLMU” value in [1] was 2 (Herbicidal effect or phytotoxicity of at least 20% and less than 30%). The “phytotoxicity TRZAW” value in data set [2] is 0 (Herbicidal effect or phytotoxicity of at least 0% and less than 10%). In addition, in [3], the “herbicidal effect STEME” value is 2 (Herbicidal effect or phytotoxicity of at least 20% and less than 30%).
As to `COCc1cccc(C(O)c2nc(OC)cc(OC)n2)c1NS(=O)(=O)C(F)F` (stereo not shown) [Pyrimisulfan], the “herbicidal effect SORVU” value in [4] was 8 (Herbicidal effect or phytotoxicity of at least 80% and less than 90%). Besides, in data set [5], the “phytotoxicity ZEAMX” value was 2 (Herbicidal effect or phytotoxicity of at least 20% and less than 30%). In data set [6], the “phytotoxicity GLXMA” value is 2 (Herbicidal effect or phytotoxicity of at least 20% and less than 30%). For the same compound, in [7], the “herbicidal effect AMARE” value is 10 (Herbicidal effect or phytotoxicity of 100%). The “herbicidal effect IPOLA” value in data set [8] was 9 (Herbicidal effect or phytotoxicity of at least 90% and less than 100%). Also, in data set [9], the “herbicidal effect ABUTH” value is on record as 10 (Herbicidal effect or phytotoxicity of 100%). Also, the “herbicidal effect SETVI” value in data set [10] was 6 (Herbicidal effect or phytotoxicity of at least 60% and less than 70%).
